Columns and labels:
[1] = system: common (oilseed) sunflower; test: Test C pre-/postemergence herbicide test; format: in vivo, Helianthus annuus; settings: preemergence
In short: (§1)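 Visual injury scores run from 0 (no effect) to 100 (complete control), assessed relative to untreated controls 12 to 14 days after treatment in the greenhouse. Chemicals were formulated in a non-phytotoxic solvent mixture with surfactant and applied to soil after planting or to emerged plants at the 1- to 4-leaf stage.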

velvetleaf = test: Test A pre-/postemergence herbicide test; format: in vivo, Abutilon theophrasti
In short: (§2)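 Pre: seeded sandy loam, directed soil spray, compound in non-phytotoxic solvent + surfactant. Post: 1–2-leaf plants (2–10 cm), sprayed to runoff. Greenhouse ~10 d; visual injury vs untreated, 0–100 scale.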

soybean = test: Test C pre-/postemergence herbicide test; format: in vivo, Glycine max; settings: preemergence
In short: as §1

common ragweed = test: Test C pre-/postemergence herbicide test; format: in vivo, Ambrosia elatior; set-up: key to Plant response rating, Ragweed: 0 = no effect, 100 = complete control; settings: preemergence
In short: as §1

lambsquarters = test: Test C pre-/postemergence herbicide test; format: in vivo, Chenopodium album; settings: preemergence
In short: as §1

morningglory = test: Test A pre-/postemergence herbicide test; format: in vivo, Ipomoea spp.
In short: as §2

rice [2] = test: Test C flooded paddy test; format: in vivo, Oryza sativa
In short: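 Plants were grown to the 1- to 4-leaf stage (2–18 cm) and then treated postemergence, or grown to the 2-leaf stage for the flooded paddy test. They were held in a greenhouse for 12 to 14 days and then scored by eye against controls, where 0 is no effect and 100 is complete control.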

rice [3] = test: Test B pre-/postemergence herbicide test; format: in vivo, Oryza sativa; settings: 0 = no effect, 100 = complete control, preemergence
In short: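 Plants compared with untreated controls 13–15 days post-treatment and given a visual 0–100 injury score. Applications: preemergence to seeds; postemergence at 1- to 4-leaf (2–18 cm); paddy species flooded, 2-leaf stage. Vehicle non-phytotoxic, surfactant included.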

cocklebur = test: Test C pre-/postemergence herbicide test; format: in vivo, Xanthium strumarium; settings: for Plant response rating, Cocklebur: preemergence
In short: as §1

yellow nutsedge = test: Test C pre-/postemergence herbicide test; format: in vivo, Cyperus esculentus; settings: preemergence
In short: as §1

[4] = 500 g ai/ha, scale 0 to 100 (0 no effect, 100 complete control), visual, 12 to 14 days
[5] = Postemergence, 500 g ai/ha, 0 to 100 scale, 0 no effect, 100 complete control
[6] = Postemergence, 2000 g ai/ha, 0 to 100 scale, 0 no effect, 100 complete control
[7] = Preemergence, 2000 g ai/ha, visual rating, 0 to 100 scale (0 no effect, 100 complete control)
[8] = preemergence, 500 g ai/ha, visual injury, 0 to 100 scale (0 no effect, 100 complete control)
[9] = 125 g ai/ha, scale 0 (no effect) to 100 (complete control), visual, 12 to 14 days

Question: How did the “Plant response rating, Sunflower” value ([1]; 62 g ai/ha, scale 0 to 100) turn out when `CCc1nn(C(C)(C)C)cc1C(=O)Nc1cc(C(=O)N(CC)CC)ccc1F` [Compound 223] was run?
Answer: The value was 0.

Question: And the “Plant response rating, Sunflower” value ([1]; 250 g ai/ha, scale 0-100)?
Answer: The value was 0.

Question: And the “Plant response rating, Sunflower” value [1, 4]?
Answer: Its value is 30.

Question: And the “Velvetleaf plant response rating” value (velvetleaf; [5])?
Answer: The value was 40.

Question: What about the “Plant response rating, Velvetleaf” value (velvetleaf; [6]) of the same molecule?
Answer: The value was 35.

Question: What about the “Velvetleaf plant response rating” value (velvetleaf; [7]) of the same molecule?
Answer: The value was 85.

Question: What about the “Velvetleaf plant response rating” value (velvetleaf; [8]) of the same molecule?
Answer: Its value is 55.

Question: What about the “Plant response rating, Soybean” value (soybean; 62 g ai/ha, scale 0 to 100) of the same molecule?
Answer: Its value is 0.

Question: What about the “Plant response rating, Soybean” value (soybean; 250 g ai/ha, scale 0-100) of the same molecule?
Answer: The value was 80.

Question: What about the “Plant response rating, Soybean” value (soybean; [4]) of the same molecule?
Answer: Its value is 90.

Question: And the “Plant response rating, Ragweed” value (common ragweed; 250 g ai/ha, scale 0-100)?
Answer: The value was 100.

Question: And the “Plant response rating, Ragweed” value (common ragweed; [4])?
Answer: The value was 100.

Question: And the “Plant response rating, Lambsquarters” value (lambsquarters; 62 g ai/ha, scale 0 to 100)?
Answer: Its value is 95.

Question: What about the “Plant response rating, Lambsquarters” value (lambsquarters; [9]) of the same molecule?
Answer: Its value is 100.

Question: What about the “Plant response rating, Lambsquarters” value (lambsquarters; 250 g ai/ha, scale 0-100) of the same molecule?
Answer: The value was 100.

Question: And the “Plant response rating, Lambsquarters” value (lambsquarters; [4])?
Answer: The value was 100.

Question: What about the “Morningglory plant response rating” value (morningglory; [5]) of the same molecule?
Answer: The value was 50.

Question: And the “Plant response rating, Morningglory” value (morningglory; [6])?
Answer: Its value is 60.

Question: And the “Morningglory plant response rating” value (morningglory; [7])?
Answer: The value was 55.

Question: And the “Morningglory plant response rating” value (morningglory; [8])?
Answer: The value was 35.

Question: And the “Rice plant response rating” value (rice [2]; 62 g ai/ha, scale 0 to 100 (0 no effect, 100 complete control))?
Answer: The value was 0.

Question: What about the “Rice plant response rating” value (rice [2]; 125 g ai/ha, scale 0 to 100 (0 no effect, 100 complete control)) of the same molecule?
Answer: Its value is 0.

Question: What about the “Rice plant response rating” value (rice [2]; 250 g ai/ha, scale of 0 to 100, 0 is no effect, 100 is complete control) of the same molecule?
Answer: Its value is 45.

Question: And the “Plant response rating, Rice” value (rice [2]; 500 g ai/ha, visual rating after 12 to 14 days, scale 0 to 100 (0 no effect, 100 complete control))?
Answer: Its value is 75.

Question: And the “Rice plant response rating (0 to 100 scale)” value (rice [3]; 125 g ai/ha)?
Answer: Its value is 0.

Question: And the “Plant response rating, Rice” value (rice [3]; 500 g ai/ha, visual rating)?
Answer: Its value is 30.

Question: And the “Plant response rating, Cocklebur” value (cocklebur; 62 g ai/ha, scale 0 to 100)?
Answer: The value was 0.

Question: And the “Plant response rating, Cocklebur” value (cocklebur; [9])?
Answer: The value was 0.

Question: What about the “Plant response rating, Cocklebur” value (cocklebur; 250 g ai/ha, scale 0-100) of the same molecule?
Answer: The value was 0.

Question: What about the “Cocklebur plant response rating” value (cocklebur; Preemergence, 500 g ai/ha, scale 0 to 100, 0 no effect, 100 complete control) of the same molecule?
Answer: The value was 0.

Question: And the “Plant response rating, Nutsedge, Yellow” value (yellow nutsedge; 62 g ai/ha, scale 0 to 100)?
Answer: Its value is 0.

Question: What about the “Plant response rating, Nutsedge, Yellow” value (yellow nutsedge; [9]) of the same molecule?
Answer: Its value is 0.

Question: And the “Plant response rating, Nutsedge, Yellow” value (yellow nutsedge; 250 g ai/ha, scale 0-100)?
Answer: The value was 0.

Question: And the “Plant response rating, Nutsedge, Yellow” value (yellow nutsedge; [4])?
Answer: The value was 0.

Reference: US20060069132A1, “Azolecarboxamide herbicides” (priority 2004, published 2006)
